For assay [1], the target named is T1, Ca^2 + Channel (Cavia porcellus, UniProt O35505).
T1 construct: The cecum string of a male Hartley guinea pig; from tissue; host or cells: isolated cecum string (taenia caeci) of male Hartley guinea pig
Description: Calcium channel antagonism (isolated guinea pig cecum string, calcium chloride concentration reaction curve). In kind it is cell-based, male Hartley guinea pig. The conditions noted are these: high potassium Krebs solution, 32° C, pretreatment 30 minutes, read-out: Ca^2 + Channel antagonism (pA2) (converted). On the procedure: The cecum string of a male Hartley guinea pig having a body weight of 350 g was taken out, and while air was supplied,.it was hanged with a load of 0.5 g in a high potassium Krebs solution bath (32° C) having calcium removed. Calcium chloride was accumulatively added, and the reaction was recorded by means of an isotonic tranduser (manufactured by Nippon Koden K. K.) to obtain a constant standard concentration reaction curve.
On the other hand, pretreatment with a compound of the present invention was conducted for 30 minutes, and then calcium chloride was added to the reaction bath, and from concetration reaction curve thereby obtained, pA2 was obtained.

Assay [2] relates to erythrocytes. Briefly: Activity to improve the deformation of erythrocytes (time to pass through millipore filter). The format is cell-based, male New Zealand rabbit. The conditions noted are these: rabbit washed erythrocytes treated with Ca^2+ and ionofore A-23187; 5 μm millipore filter. On the procedure:
A suspension of washed erythrocytes was prepared from a blood collected by heart puncture from a male New Zealand rabbit having a body weight of about 3 kg and having Heparin added thereto, by using a Krebs-Henseleit solution containing 20 mM of HEPES. […] As a control drug, W-7 was used.

In assay [3] the target is T2, bovine cerebral calmodulin (Bos taurus, UniProt P62157).
T2 construct: bovine cerebral calmodulin; from tissue; host or cells: bovine brain (calmodulin); bovine myocardium (PDE)
Description: Calmodulin antagonism (inhibition of 5'-AMP formation by calmodulin-stimulated c-AMP-PDE). In kind it is biochemical. The text has this:
As a control drug, W-7 [N-(6-aminohexyl)-5-chloro-1-naphthalenesulfonamide]was used.

Where [4] appears, read: 50 m units bovine cerebral calmodulin, 0.1 mM Ca^2+, 1 μM c-AMP, 0.875 m units bovine myocardial c-AMP-PDE, read-out: Calmodulin antagonism IC50.

Structures are written as SMILES. Structures can show the parent of a compound that is named as a salt. Where two headings read alike, the source gives them in different places.

T1 sequence (O35505 whole entry): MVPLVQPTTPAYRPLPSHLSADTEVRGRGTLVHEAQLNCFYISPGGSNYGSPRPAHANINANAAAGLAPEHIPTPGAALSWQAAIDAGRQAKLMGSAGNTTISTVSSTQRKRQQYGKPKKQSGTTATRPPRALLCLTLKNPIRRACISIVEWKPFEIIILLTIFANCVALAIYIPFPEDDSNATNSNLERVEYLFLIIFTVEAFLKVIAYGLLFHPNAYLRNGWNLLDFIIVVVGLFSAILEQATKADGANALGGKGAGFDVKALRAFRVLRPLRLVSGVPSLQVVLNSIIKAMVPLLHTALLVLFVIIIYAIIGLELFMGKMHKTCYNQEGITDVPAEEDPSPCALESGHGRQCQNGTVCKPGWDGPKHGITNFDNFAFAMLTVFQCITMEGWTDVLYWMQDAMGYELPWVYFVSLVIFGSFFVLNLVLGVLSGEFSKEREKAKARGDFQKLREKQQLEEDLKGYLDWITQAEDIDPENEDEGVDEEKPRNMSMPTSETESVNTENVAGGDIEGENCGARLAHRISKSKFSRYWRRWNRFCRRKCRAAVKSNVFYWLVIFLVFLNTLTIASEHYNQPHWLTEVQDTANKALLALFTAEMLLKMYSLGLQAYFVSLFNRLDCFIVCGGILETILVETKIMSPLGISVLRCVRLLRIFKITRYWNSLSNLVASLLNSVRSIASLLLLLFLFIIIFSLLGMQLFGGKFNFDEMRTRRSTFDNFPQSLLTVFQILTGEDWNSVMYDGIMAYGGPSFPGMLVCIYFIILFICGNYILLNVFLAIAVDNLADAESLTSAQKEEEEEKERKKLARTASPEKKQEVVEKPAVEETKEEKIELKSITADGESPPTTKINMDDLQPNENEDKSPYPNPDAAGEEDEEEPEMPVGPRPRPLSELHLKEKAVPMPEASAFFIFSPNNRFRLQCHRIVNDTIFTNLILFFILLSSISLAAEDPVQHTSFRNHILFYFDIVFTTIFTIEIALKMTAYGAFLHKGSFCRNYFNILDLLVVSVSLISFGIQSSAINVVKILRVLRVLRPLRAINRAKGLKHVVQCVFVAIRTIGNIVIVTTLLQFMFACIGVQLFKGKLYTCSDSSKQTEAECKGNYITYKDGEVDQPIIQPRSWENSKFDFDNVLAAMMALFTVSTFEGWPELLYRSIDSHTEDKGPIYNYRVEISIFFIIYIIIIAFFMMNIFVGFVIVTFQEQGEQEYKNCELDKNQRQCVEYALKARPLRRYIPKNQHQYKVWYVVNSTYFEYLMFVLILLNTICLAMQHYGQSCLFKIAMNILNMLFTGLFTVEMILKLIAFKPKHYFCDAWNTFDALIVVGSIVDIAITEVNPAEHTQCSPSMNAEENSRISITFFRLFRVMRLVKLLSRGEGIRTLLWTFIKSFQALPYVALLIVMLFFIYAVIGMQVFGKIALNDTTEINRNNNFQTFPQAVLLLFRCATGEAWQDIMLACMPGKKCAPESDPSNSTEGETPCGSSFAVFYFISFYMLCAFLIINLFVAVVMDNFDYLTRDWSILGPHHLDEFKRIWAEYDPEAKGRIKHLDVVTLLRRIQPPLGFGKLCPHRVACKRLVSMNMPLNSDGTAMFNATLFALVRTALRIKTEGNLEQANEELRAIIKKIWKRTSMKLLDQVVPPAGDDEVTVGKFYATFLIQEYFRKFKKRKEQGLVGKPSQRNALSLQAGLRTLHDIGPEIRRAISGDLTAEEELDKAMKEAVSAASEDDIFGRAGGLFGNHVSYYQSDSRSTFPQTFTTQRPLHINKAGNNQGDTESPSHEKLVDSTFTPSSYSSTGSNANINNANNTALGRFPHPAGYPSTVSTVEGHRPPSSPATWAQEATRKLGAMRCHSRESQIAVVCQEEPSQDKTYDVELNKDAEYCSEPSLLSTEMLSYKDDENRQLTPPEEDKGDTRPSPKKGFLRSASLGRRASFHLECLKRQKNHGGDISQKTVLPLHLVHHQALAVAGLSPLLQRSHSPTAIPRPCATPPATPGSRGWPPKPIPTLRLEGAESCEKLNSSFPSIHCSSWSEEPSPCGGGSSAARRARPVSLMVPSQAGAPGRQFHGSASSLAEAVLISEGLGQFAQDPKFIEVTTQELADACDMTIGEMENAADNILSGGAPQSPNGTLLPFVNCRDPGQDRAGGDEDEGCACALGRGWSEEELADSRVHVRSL

As to `c1ccc(C(=NOCc2cccc3ccccc23)c2cccnc2)cc1` [Compound 20, O-(1-naphthylmethyl)-phenyl-3-pyridylketoxime], in assay [1], the Kb was 0.525 µM. Also, the “Activity to improve the deformation of erythrocytes [pass through time (sec.)]” value (“Activity to improve the deformation” for short) in assay [2] stood at 20 s.
The term IC50 denotes the midpoint of a concentration-inhibition curve. Take `Cc1ccccc1CCON=C(c1ccccc1)c1cccnc1` [Compound 43, O-[2-(2-methylphenyl)ethyl]-phenyl-3-pyridylketoxime]: the Kb in assay [1] is 0.479 µM. Moreover, in assay [3] (setting [4]), the half-inhibitory concentration (IC50) was 4.1 µM. In addition, the “Activity to improve the deformation” value in assay [2] was determined as 14 s.
Turning to `Fc1cccc(C(=NOCCc2ccccc2)c2cccnc2)c1` [Compound 63], the Kb in assay [1] was 0.603 µM. In addition, the IC50 in assay [3] (setting [4]) came to 5 µM. The “Activity to improve the deformation” value in assay [2] stood at 18 s.
For the compound `CNc1ccc2oc(C[C@H]3O[C@@]4(CC[C@H]3C)O[C@H]([C@H](C)C(=O)c3ccc[nH]3)[C@H](C)C[C@H]4C)nc2c1C(=O)O` [Calcium salt of A 23187, reference compound], the “Activity to improve the deformation” value in assay [2] was determined as 39 s.
For the compound `c1ccc(CCON=C(c2ccccc2)c2cccnc2)cc1` [Compound 1, O-(2-phenylethyl)-phenyl-3-pyridylketoxime], the Kb in assay [1] was 0.275 µM. In assay [3] (setting [4]), the IC50 came out at 3.8 µM. The “Activity to improve the deformation” value in assay [2] is 12 s.
Consider `c1ccc(CCON=C(c2cccnc2)c2cccs2)cc1` [Compound 66], for which the Kb in assay [1] is 0.525 µM. Besides, in assay [2], the “Activity to improve the deformation” value is 17 s.
For `Clc1ccccc1CCON=C(c1ccccc1)c1cccnc1` [Compound 46], in assay [3] (setting [4]), the IC50 is 8.8 µM. The “Activity to improve the deformation” value in assay [2] came out at 18 s.
For `Clc1cccc(CCON=C(c2ccccc2)c2cccnc2)c1` [Compound 47], in assay [3] (setting [4]), the IC50 came to 6.3 µM. In assay [2], the “Activity to improve the deformation” value was found to be 15 s.
As to `c1ccc(OCCON=C(c2ccccc2)c2cccnc2)cc1` [Compound 26, O-[(2-phenoxy)ethyl]-phenyl-3-pyridylketoxime], the Kb in assay [1] was 0.234 µM. Further, in assay [3] (setting [4]), the 50% inhibitory concentration (IC50) turned out to be 10 µM. The “Activity to improve the deformation” value in assay [2] came to 18 s.
As for `NCCCCCCNS(=O)(=O)c1cccc2c(Cl)cccc12` [Compound W-7, N-(6-aminohexyl)-5-chloro-1-naphthalenesulfonamide, reference compound], in assay [2], the “Activity to improve the deformation” value came to 25 s.
Consider `O=[N+]([O-])c1cccc(C(=NOCCc2ccccc2)c2cccnc2)c1` [Compound 65], for which the Kb in assay [1] is 0.692 µM. For the same compound, in assay [2], the “Activity to improve the deformation” value was found to be 18 s.
Compound `Clc1ccccc1C(=NOCCc1ccccc1)c1cccnc1` [Compound 58] came in with an IC50 in assay [3] of 3.5 µM. Moreover, the “Activity to improve the deformation” value in assay [2] was determined as 12 s.
As for `COc1ccc(CON=C(c2ccccc2)c2cccnc2)cc1OC` [Compound 14, O-(3,4-dimethoxybenzyl)-phenyl-3-pyridiylketoxime], the Kb in assay [1] was 0.437 µM. For the same compound, the IC50 in assay [3] (setting [4]) was determined as 8 µM. For the same compound, the “Activity to improve the deformation” value in assay [2] is 15 s.
Consider `COc1ccc(CON=C(c2ccccc2)c2ccccn2)cc1OC` [Compound 13, O-(3,4-dimethoxybenzyl)-phenyl-2-pyridylketoxime], for which, in assay [1], the Kb is 0.148 µM. Further, the “Activity to improve the deformation” value in assay [2] came to 16 s.
Consider `Cc1ccc(C)c(C(=NOCCc2ccccc2)c2cccnc2)c1` [Compound 62], for which, in assay [1], the Kb was 0.933 µM. Further, the IC50 in assay [3] (setting [4]) came to 8 µM. For the same compound, in assay [2], the “Activity to improve the deformation” value is 18 s.
With `FC(F)(F)c1cccc(C(=NOCCc2ccccc2)c2cccnc2)c1` [Compound 64], in assay [1], the Kb was 0.871 µM. Also, in assay [3] (setting [4]), the half-maximal inhibitory concentration (IC50) is 6.5 µM. Besides, the “Activity to improve the deformation” value in assay [2] is 16 s.
In assay [3], `Clc1ccc(C(=NOCCc2ccccc2)c2cccnc2)cc1` [Compound 57] returned an IC50 of 9.5 µM. In addition, the “Activity to improve the deformation” value in assay [2] worked out at 20 s.

Values taken from patent publication US4971985A, “Pyridylketoxime ether compound and pharmaceutical composition containing it” (Kaken Pharmaceutical Co., Ltd., priority 1988, dated 1990).
